{"source": "patent US11096987B2", "about": "“Mutant peptides and methods of treating subjects using the same” (BIOINCEPT, LLC, priority 2015, dated 2021)", "key": {"[1]": {"tested_on": "CD11b (macrophage) monocytes", "test": "FITC-PIF assay, binding to CD11b monocytes", "conditions": "for CD11b %: FITC-PIF binding"}, "CD19 (B cell) monocytes": {"tested_on": "CD19 (B cell) monocytes", "test": "FITC-PIF assay, binding to CD19 monocytes"}, "Jurkat T-cells": {"tested_on": "Jurkat T-cells", "test": "K+ flux inhibition in Jurkat T-cells", "assay_type": "cell-based", "conditions": "compared with control", "source_text": "(§1) (FIG. 2). […] (FIG. 3). […] (FIG. 4). […] Thus dependent on the target Kv1.3 or IDE the mutated PIF-1 can have a target-specific effect which can also translate to diverse biological activity."}, "[2]": {"target": "insulin degrading enzyme (IDE) (Homo sapiens, UniProt P14735)", "test": "Fluorescent based thermal shift assay", "assay_type": "binding", "conditions": "ligands 10 uM, receptor 1 uM", "protocol": "Concentrations of the ligands 10 uM and 1 uM of the receptor, buffer consisting of 10 mM HEPES-HCL, 150 mM […], and protein folding sensitive dye SyO 1:1000.\nas §1"}, "let-7": {"tested_on": "let-7", "test": "let-7 microRNA levels in microglia and neural cell lines", "assay_type": "cell-based", "source_text": "as §1\nThis direct effect on target cells was confirmed by targeting microglia and neuron cell line (Neu) in vitro (FIGS. 5C, D). […] Phosphorylated CREB in turn facilitates expression of (Gap43, Bdnf and Bcl2) (FIG. 5F) that play important role regulating neuronal growth, survival, which is dependent on TLR4 signaling (FIG. 5G). PKA/PKC was reported to impart TBI (Lucke-Wold, Logsdon et al. 2014; Zohar, Lavy et al. 2011; Titus 2013). […] For currently used neuroprotective drugs ability to reach the brain in both intact and damaged settings is difficult. Therefore frequently drugs in order to pass the BBB they have to be very small, or have to be added to agents that would favor passage."}}, "note": "Read-outs that look alike come from different tables or passages of the source.", "data": [{"sequence": "AVRIKPGSANKPSDD [SEQ ID NO: 10]", "values": [{"measurement": "binding affinity to CD11b monocytes compared to natural PIF", "setting": "[1]", "result": "higher binding affinity"}, {"measurement": "CD11b %", "setting": "[1]", "result": 33.54, "unit": "%"}, {"measurement": "CD19 %", "setting": "CD19 (B cell) monocytes", "result": 5.90, "unit": "%"}, {"measurement": "binding affinity to CD19 monocytes compared to natural PIF", "setting": "CD19 (B cell) monocytes", "result": "higher binding affinity"}]}, {"sequence": "MVRGKPGSANKPSDD [SEQ ID NO: 8, PIF mutant]", "values": [{"measurement": "binding affinity to CD11b monocytes compared to natural PIF", "setting": "[1]", "result": "higher binding affinity"}, {"measurement": "CD11b %", "setting": "[1]", "result": 35.48, "unit": "%"}, {"measurement": "effect on K+ flux", "setting": "Jurkat T-cells", "result": "no effect"}, {"measurement": "Tm / thermal shift compared to PIF(wt)", "setting": "[2]; listed as PIF(mutant-3)", "result": "increased Tm"}, {"measurement": "Tm / thermal shift compared to PIF(wt)", "setting": "[2]; listed as mut-3", "result": "activity was decreased"}, {"measurement": "binding affinity to CD19 monocytes compared to natural PIF", "setting": "CD19 (B cell) monocytes", "result": "higher binding affinity"}, {"measurement": "CD19 %", "setting": "CD19 (B cell) monocytes; FITC-PIF binding", "result": 5.60, "unit": "%"}, {"measurement": "effect on let-7 microRNA", "setting": "let-7", "result": "lack of effect"}]}, {"sequence": "MVRIKEGSANKPSDD [SEQ ID NO: 7, PIF mutant]", "values": [{"measurement": "effect on K+ flux", "setting": "Jurkat T-cells", "result": "no effect"}, {"measurement": "Tm / thermal shift compared to PIF(wt)", "setting": "[2]; listed as PIF(mutant-1)", "result": "decreased Tm"}, {"measurement": "Tm / thermal shift compared to PIF(wt)", "setting": "[2]; listed as mut-1", "result": "reduced thermal shift"}]}]}
